# From patent US12024507B2, “Compounds as GLP-1R agonists” (Terns Pharmaceuticals, Inc., priority 2021, dated 2024)
# Experiment: Passive permeability and efflux ratio in Caco-2 cell monolayers
# Format: in vitro ADME
# Settings: human, Caco-2, 5 μM, pH 7.4, 120 minutes; for Papp A→B at 120 min, 5 μM: apical to basolateral; for Papp B→A at 120 min, 5 μM: basolateral to apical
# Procedure: Caco-2 cells (clone C2BBe1) were obtained from American Type Culture Collection (Manassas, VA). Cell monolayers were grown to confluence on collagen-coated, microporous membranes in 12-well assay plates. Details of the plates and their certification are shown below. The permeability assay buffer was Hanks' balanced salt solution containing 10 mM HEPES and 15 mM glucose at a pH of 7.4. The buffer in the receiver chamber also contained 1% bovine serum albumin. The dosing solution concentration was 5 μM of test article in the assay buffer. Cell monolayers were dosed on the apical side (A-to-B) or basolateral side (B-to-A) and incubated at 37° C. with 5% CO2 in a humidified incubator. Samples were taken from the donor and receiver chambers at 120 minutes. Each determination was performed in duplicate. The flux of lucifer yellow was also measured post-experimentally for each monolayer to ensure no damage was inflicted to the cell monolayers during the flux period. All samples were assayed by LC-MS/MS using electrospray ionization. The apparent permeability (Papp) and percent recovery were calculated as follows: Papp=(dCr/dt)×Vr/(A×CA) (1) Percent Recovery=100×((Vr×Cr^final)+(Vd×Cd^final))/(Vd×CN) (2), where, dCr/dt is the slope of the cumulative receiver concentration versus time in μM s^−1; Vr is the volume of the receiver compartment in cm^3; Vd is the volume of the donor compartment in cm^3; A is the area of the insert (1.13 cm^2 for 12-well); CA is the average of the nominal dosing concentration and the measured 120-minute donor concentration in μM; CN is the nominal concentration of the dosing solution in μM; Cr^final is the cumulative receiver concentration in μM at the end of the incubation period; Cd^final is the concentration of the donor in μM at the end of the incubation period. Efflux ratio (ER) is defined as Papp (B-to-A)/Papp (A-to-B).
SMILES,"Papp A→B at 120 min, 5 μM","Papp B→A at 120 min, 5 μM"
"N#Cc1ccc(COc2cccc(C3CCN(Cc4nc5ccc(-c6nc(=O)[nH]o6)cc5n4Cc4cncs4)CC3)n2)c(F)c1 [Compound 13, 3-fluoro-4-(((6-(1-((6-(3-oxo-2,3-dihydro-1,2,4-oxadiazol-5-yl)-1-(thiazol-5-ylmethyl)-1H-benzo[d]imidazol-2-yl)methyl)piperidin-4-yl)pyridin-2-yl)oxy)methyl)benzonitrile]",46.9 ×10⁻⁶ cm/s,51.1 ×10⁻⁶ cm/s
N#Cc1ccc(COc2cccc(C3CCN(Cc4nc5ccc(-c6nnn[nH]6)cc5n4C[C@@H]4CCO4)CC3)n2)c(F)c1 [Compound 8],1.8 ×10⁻⁶ cm/s,18.8 ×10⁻⁶ cm/s
